The values below come from patent US20070212360A1, “Modulation of mitochondrial oxygen consumption for therapeutic purposes” (priority 2006, published 2007).

In experiment [1] the test system is Su.86 tumors. Put plainly: Tumor growth delay, Su.86 xenografts. The format is in vivo, mouse. The settings on record: tirapazamine followed by echinomycin at 24 hours, 6 cycles; compared to echinomycin followed by tirapazamine. As to the method:
FIG. 10. Pharmacologic inhibition of HIF1 or PDK1 enhances the response of tumor xenografts to the hypoxic cytotoxin tirapazamine. For all experiments, treatment was initiated when the mean tumor volume was 100-200 mm^3. (a) RKO tumor bearing mice were treated with 0.12 mg/kg echinomycin ip followed by 30 mg/kg tirapazamine ip at 24 hours, followed by a rest day for 3 cycles. Single agents were given at the same dose, on the same schedule. (b) RKO tumor bearing mice were treated with 50 mg/kg DCA ip followed by 20 mg/kg tirapazamine ip at 4 hours daily for 14 days. Single agents were given at the same dose, on the same schedule. (c,d,e) RKO (c), RKOShHIF1α (d), or Su.86 (e) tumor bearing mice were treated with echinomycin plus tirapazamine as described above for 6 cycles (Ech+TPZ), or tirapazamine followed by echinomycin at 24 hours followed by a rest day for 6 cycles (TPZ+Ech). For all experiments, arrows indicate when treatment was stopped.
Cell lines and tumor xenografts. RKO human colon carcinoma cells and Su.86 human pancreatic carcinoma cells were obtained from the American Type Culture Collection (ATCC, Manassas, Va.). The RKOShHIF1α cell line in which HIF1α is stably knocked down by shRNA has been described previously. RKO and immortalized MEF cells were grown in Dulbecco's Modified Eagle's Media (DMEM) supplemented with 10% fetal bovine serum (FBS). […]

Experiment [2] has as its system RKO and RKOShHIF1α tumors. The experiment can be described thus: Tumor hypoxia by pimonidazole immunofluorescence. It is filed as in vivo, mouse. As to the method: FIG. 9. Increasing oxygen consumption by inhibition of HIF increases tumor hypoxia. (a-d) Pimonidazole staining of tumor sections from RKO (a,b) and RKOShHIF1α (c,d) tumors 24 h after treatment with PBS (a,c) or echinomycin (b,d). The tumor section is outlined in white, pimonidazole staining is shown in green, and the necrotic areas and cutting artifacts are shown in gray. (e) The mean hypoxic fraction of RKO and RKOShHIF1α tumors 24 h after treatment with PBS or echinomycin (n=4-5 tumors per group). Error bars represent the standard error of the mean. (*) indicates a significant difference (p<0.05).
Detection of tumor hypoxia by pimonidazole immunofluorescence. Mice bearing 100-300 mm^3 subcutaneous RKO and RKOshHIF tumors on either flank were treated with 0.12 mg/kg echinomycin ip or saline control, and 24 h later they were injected with the hypoxia marker drug pimonidazole (60 mg/kg ip) (Millipore, Temecula, Calif.). Three hours after pimonidazole injection, tumors were excised, and frozen in Tissue-Tek O.C.T. compound. Frozen sections (10 μm thick) from the center regions of tumors were cut, air dried, and fixed for 15 min in acetone at 4 C. Slides were then air dried, rehydrated in PBS, and blocked for 30 min in 4% FBS, 5% non-fat milk, and 0.1% Triton X-100 in PBS. Slides were incubated for 1 hr at room temperature with a FITC-conjugated monoclonal antibody against pimonidazole (Millipore) diluted 1:20 in blocking solution. Slides were washed, counterstained with 50 nM propidium iodide (PI), and mounted under a coverslip in Vectashield medium (Vector Labs, Burlingame, Calif.).
FITC and Pi fluorescent signals for entire tumor sections (one section per tumor) were acquired using a 4× objective lens on a Nikon Eclipse E800 microscope equipped with a motorized scanning stage, a 12-bit QImaging camera (OImaging, Burnaby, Canada), and Bioquant imaging software (Bioquant, Nashville, Tenn.). Acquisition parameters were held constant for all samples. ImageJ software (NIH, Bethesda, Md.) was used to analyze the resulting tiled images. […]

[3] abbreviates: 24 h after 0.12 mg/kg echinomycin ip vs vehicle.

On to `CS[C@H]1SC[C@H]2C(=O)N(C)[C@@H](C(C)C)C(=O)OC[C@@H](NC(=O)c3cnc4ccccc4n3)C(=O)N[C@@H](C)C(=O)N(C)[C@@H]1C(=O)N(C)[C@@H](C(C)C)C(=O)OC[C@@H](NC(=O)c1cnc3ccccc3n1)C(=O)N[C@@H](C)C(=O)N2C` [echinomycin], for which the “effect on growth of Su.86 tumors, reversed schedule” value in experiment [1] was “little effect”. Besides, in experiment [2] (setting [3]), the “extent of hypoxia in RKOShHIF1α tumors (pimonidazole)” value is given as “no significant effect” and the “hypoxic fraction of RKO tumors (pimonidazole)” value is recorded as “increase in the hypoxic fraction”. Besides, the “extent of necrosis in tumor sections” value in experiment [2] (four treatment groups (RKO, RKOShHIF1α; echinomycin or vehicle)) is on record as “no difference”.
